Test results published in US9738634B2, “Heterocyclic amide compound and herbicide” (SYNGENTA PARTICIPATIONS AG, priority 2013, dated 2017).

Key:
Format in all cases: in vivo
barnyard grass [1] = assay: Test Example 1: weedkilling efficacy, preemergent weed treatment in the submerged state; A: barnyard grass; conditions: treatment dosage 252 g/ha
How it was run: (§1)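 Pots of alluvial soil flooded 4 cm deep, sown with barnyard grass, bulrush and oval-leafed pondweed and transplanted with 2.5-leaf rice. Emulsified compound applied to the water surface on sowing day at stated g/ha; greenhouse 25–30 °C, effects assessed 3 weeks after treatment.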

bulrush [2] = assay: Test Example 1: weedkilling efficacy, preemergent weed treatment in the submerged state; B: bulrush; conditions: treatment dosage 252 g/ha
How it was run: as §1

oval-leafed pondweed [3] = assay: Test Example 1: weedkilling efficacy, preemergent weed treatment in the submerged state; C: oval-leafed pondweed; conditions: treatment dosage 252 g/ha
How it was run: as §1

transplanted rice = assay: Test Example 1: preemergent weed treatment in the submerged state, effect on crop; a: transplanted rice; conditions: treatment dosage 252 g/ha
How it was run: as §1

barnyard grass [4] = assay: Test Example 2: weedkilling efficacy, growth period weed treatment in the submerged state; A: barnyard grass; conditions: treatment dosage 252 g/ha
How it was run: (§2)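 Barnyard grass, bulrush and oval-leafed pondweed sown in alluvial soil under 4 cm flooding, greenhouse 25 to 30° C. At 1-2 leaf stage, water-diluted emulsion applied to the water surface at stated g/ha dosages; effects scored 3 weeks later.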

bulrush [5] = assay: Test Example 2: weedkilling efficacy, growth period weed treatment in the submerged state; B: bulrush; conditions: treatment dosage 252 g/ha
How it was run: as §2

oval-leafed pondweed [6] = assay: Test Example 2: weedkilling efficacy, growth period weed treatment in the submerged state; C: oval-leafed pondweed; conditions: treatment dosage 252 g/ha
How it was run: as §2

crabgrass [7] = assay: Test Example 3: weedkilling efficacy through soil treatment; D: crabgrass; conditions: treatment dosage 315 g/ha
How it was run: (§3)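 Crop and weed responses were judged three weeks after a uniform surface spray of the water-diluted emulsion at the given g/ha rate. Seeds sat beneath about 1.5 cm of sterilized diluvial soil, and boxes stood in a greenhouse at 25 to 30° C.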

green foxtail [8] = assay: Test Example 3: weedkilling efficacy through soil treatment; E: green foxtail; conditions: treatment dosage 315 g/ha
How it was run: as §3

black-grass [9] = assay: Test Example 3: weedkilling efficacy through soil treatment; H: black-grass; conditions: treatment dosage 315 g/ha
How it was run: as §3

Italian ryegrass [10] = assay: Test Example 3: weedkilling efficacy through soil treatment; I: Italian ryegrass; conditions: treatment dosage 315 g/ha
How it was run: as §3

Indian mallow [11] = assay: Test Example 3: weedkilling efficacy through soil treatment; K: Indian mallow; conditions: treatment dosage 315 g/ha
How it was run: as §3

redroot pigweed [12] = assay: Test Example 3: weedkilling efficacy through soil treatment; L: redroot pigweed; conditions: treatment dosage 315 g/ha
How it was run: as §3

fig-leafed goosefoot [13] = assay: Test Example 3: weedkilling efficacy through soil treatment; M: fig-leafed goosefoot; conditions: treatment dosage 315 g/ha
How it was run: as §3

chickweed [14] = assay: Test Example 3: weedkilling efficacy through soil treatment; N: chickweed; conditions: treatment dosage 315 g/ha
How it was run: as §3

birds-eye speedwell [15] = assay: Test Example 3: weedkilling efficacy through soil treatment; p: birds-eye speedwell; conditions: treatment dosage 315 g/ha
How it was run: as §3

directly sown rice [16] = assay: Test Example 3: soil treatment, effect on crop; b: directly sown rice; conditions: treatment dosage 315 g/ha
How it was run: as §3

corn [17] = assay: Test Example 3: soil treatment, effect on crop; c: corn; conditions: treatment dosage 315 g/ha
How it was run: as §3

soybean [18] = assay: Test Example 3: soil treatment, effect on crop; d: soybean; conditions: treatment dosage 315 g/ha
How it was run: as §3

wheat [19] = assay: Test Example 3: soil treatment, effect on crop; e: wheat; conditions: treatment dosage 315 g/ha
How it was run: as §3

beet [20] = assay: Test Example 3: soil treatment, effect on crop; f: beet; conditions: treatment dosage 315 g/ha
How it was run: as §3

crabgrass [21] = assay: Test Example 4: weedkilling efficacy by foliar treatment; D: crabgrass; conditions: treatment dosage 315 g/ha
Protocol: (§4) Testing of Weedkilling Efficacy by Foliar Treatment
(§5) Sterilized diluvial soil was introduced into 21 cm long, 13 cm wide, 7 cm deep plastic boxes, and seeds of crabgrass, green foxtail, barnyard grass, wild oat, black-grass, Italian ryegrass, common wind-grass, Indian mallow, redroot pigweed, fig-leafed goosefoot, chickweed, catchweed, birds-eye speedwell, corn, soybean, rice, wheat, beet and rapeseed were each spot-sown, and covered with about 1.5 cm of soil, then the plants were grown in a greenhouse at 25 to 30° C.
(§6) After they had grown for 14 days, emulsions of compounds of the present invention prepared according to compounding example 2 were diluted with water to give the specified dosages, and applied uniformly onto the stem and leaf parts with a small sprayer. 3 weeks after the pesticide treatment the effect on each type of plant was investigated on the basis of the assessment criteria of test example 1.
(§7) A: barnyard grass, B: bulrush, C: oval-leafed pondweed, D: crabgrass, E: green foxtail, F: barnyard grass, G: wild oat, H: black-grass, I: Italian ryegrass, J: common wind-grass, K: Indian mallow, L: redroot pigweed, M: fig-leafed goosefoot, N: chickweed, O: catchweed, p: birds-eye speedwell, a: transplanted rice, b: directly sown rice, c: corn, d: soybean, e: wheat, f: beet, g: rapeseed
(§8) Further, pesticide dosage (g/ha) indicates the concentration regulated such that treatment was with only the stated number of grams (g), when calculated per hectare (ha).

green foxtail [22] = assay: Test Example 4: weedkilling efficacy by foliar treatment; E: green foxtail; conditions: treatment dosage 315 g/ha
Protocol: as §4, §5, §6, §7, §8

black-grass [23] = assay: Test Example 4: weedkilling efficacy by foliar treatment; H: black-grass; conditions: treatment dosage 315 g/ha
Protocol: as §4, §5, §6, §7, §8

Italian ryegrass [24] = assay: Test Example 4: weedkilling efficacy by foliar treatment; I: Italian ryegrass; conditions: treatment dosage 315 g/ha
Protocol: as §4, §5, §6, §7, §8

Indian mallow [25] = assay: Test Example 4: weedkilling efficacy by foliar treatment; K: Indian mallow; conditions: treatment dosage 315 g/ha
Protocol: as §4, §5, §6, §7, §8

redroot pigweed [26] = assay: Test Example 4: weedkilling efficacy by foliar treatment; L: redroot pigweed; conditions: treatment dosage 315 g/ha
Protocol: as §4, §5, §6, §7, §8

fig-leafed goosefoot [27] = assay: Test Example 4: weedkilling efficacy by foliar treatment; M: fig-leafed goosefoot; conditions: treatment dosage 315 g/ha
Protocol: as §4, §5, §6, §7, §8

chickweed [28] = assay: Test Example 4: weedkilling efficacy by foliar treatment; N: chickweed; conditions: treatment dosage 315 g/ha
Protocol: as §4, §5, §6, §7, §8

catchweed = assay: Test Example 4: weedkilling efficacy by foliar treatment; O: catchweed; conditions: treatment dosage 315 g/ha
Protocol: as §4, §5, §6, §7, §8

birds-eye speedwell [29] = assay: Test Example 4: weedkilling efficacy by foliar treatment; p: birds-eye speedwell; conditions: treatment dosage 315 g/ha
Protocol: as §4, §5, §6, §7, §8

directly sown rice [30] = assay: Test Example 4: foliar treatment, effect on crop; b: directly sown rice; conditions: treatment dosage 315 g/ha
Protocol: as §4, §5, §6, §7, §8

corn [31] = assay: Test Example 4: foliar treatment, effect on crop; c: corn; conditions: treatment dosage 315 g/ha
Protocol: as §4, §5, §6, §7, §8

soybean [32] = assay: Test Example 4: foliar treatment, effect on crop; d: soybean; conditions: treatment dosage 315 g/ha
Protocol: as §4, §5, §6, §7, §8

wheat [33] = assay: Test Example 4: foliar treatment, effect on crop; e: wheat; conditions: treatment dosage 315 g/ha
Protocol: as §4, §5, §6, §7, §8

beet [34] = assay: Test Example 4: foliar treatment, effect on crop; f: beet; conditions: treatment dosage 315 g/ha
Protocol: as §4, §5, §6, §7, §8

CC1=C(c2ccc(Cl)s2)C(=O)N(C(C)(C)C(=O)Nc2cccc(Cl)n2)CO1 [B-2-02]
A (barnyard grass) weedkilling efficacy grade (barnyard grass [1]): 5 (weed kill ratio 90% or more, (practically complete withering))
B (bulrush) weedkilling efficacy grade (bulrush [2]): 5 (weed kill ratio 90% or more, (practically complete withering))
C (oval-leafed pondweed) weedkilling efficacy grade (oval-leafed pondweed [3]): 5 (weed kill ratio 90% or more, (practically complete withering))
a (transplanted rice) effect on crop grade (transplanted rice): 0 (weed kill ratio 5% or less (practically no effect))
A (barnyard grass) weedkilling efficacy grade (barnyard grass [4]): 5 (weed kill ratio 90% or more, (practically complete withering))
B (bulrush) weedkilling efficacy grade (bulrush [5]): 5 (weed kill ratio 90% or more, (practically complete withering))
C (oval-leafed pondweed) weedkilling efficacy grade (oval-leafed pondweed [6]): 5 (weed kill ratio 90% or more, (practically complete withering))
D (crabgrass) weedkilling efficacy grade (crabgrass [7]): 5 (weed kill ratio 90% or more, (practically complete withering))
E (green foxtail) weedkilling efficacy grade (green foxtail [8]): 3 (weed kill ratio 40% or more, less than 70%)
H (black-grass) weedkilling efficacy grade (black-grass [9]): 5 (weed kill ratio 90% or more, (practically complete withering))
I (Italian ryegrass) weedkilling efficacy grade (Italian ryegrass [10]): 5 (weed kill ratio 90% or more, (practically complete withering))
K (Indian mallow) weedkilling efficacy grade (Indian mallow [11]): 3 (weed kill ratio 40% or more, less than 70%)
L (redroot pigweed) weedkilling efficacy grade (redroot pigweed [12]): 3 (weed kill ratio 40% or more, less than 70%)
M (fig-leafed goosefoot) weedkilling efficacy grade (fig-leafed goosefoot [13]): 0 (weed kill ratio 5% or less (practically no effect))
N (chickweed) weedkilling efficacy grade (chickweed [14]): 3 (weed kill ratio 40% or more, less than 70%)
P (birds-eye speedwell) weedkilling efficacy grade (birds-eye speedwell [15]): 2 (weed kill ratio 20% or more, less than 40%)
b (directly sown rice) effect on crop grade (directly sown rice [16]): 2 (weed kill ratio 20% or more, less than 40%)
c (corn) effect on crop grade (corn [17]): 0 (weed kill ratio 5% or less (practically no effect))
d (soybean) effect on crop grade (soybean [18]): 0 (weed kill ratio 5% or less (practically no effect))
e (wheat) effect on crop grade (wheat [19]): 3 (weed kill ratio 40% or more, less than 70%)
f (beet) effect on crop grade (beet [20]): 0 (weed kill ratio 5% or less (practically no effect))
D (crabgrass) weedkilling efficacy grade (crabgrass [21]): 4 (weed kill ratio 70% or more, less than 90%)
E (green foxtail) weedkilling efficacy grade (green foxtail [22]): 3 (weed kill ratio 40% or more, less than 70%)
H (black-grass) weedkilling efficacy grade (black-grass [23]): 4 (weed kill ratio 70% or more, less than 90%)
I (Italian ryegrass) weedkilling efficacy grade (Italian ryegrass [24]): 3 (weed kill ratio 40% or more, less than 70%)
K (Indian mallow) weedkilling efficacy grade (Indian mallow [25]): 0 (weed kill ratio 5% or less (practically no effect))
L (redroot pigweed) weedkilling efficacy grade (redroot pigweed [26]): 4 (weed kill ratio 70% or more, less than 90%)
M (fig-leafed goosefoot) weedkilling efficacy grade (fig-leafed goosefoot [27]): 3 (weed kill ratio 40% or more, less than 70%)
N (chickweed) weedkilling efficacy grade (chickweed [28]): 0 (weed kill ratio 5% or less (practically no effect))
O (catchweed) weedkilling efficacy grade (catchweed): 0 (weed kill ratio 5% or less (practically no effect))
P (birds-eye speedwell) weedkilling efficacy grade (birds-eye speedwell [29]): 1 (weed kill ratio 5% or more, less than 20%)
b (directly sown rice) effect on crop grade (directly sown rice [30]): 4 (weed kill ratio 70% or more, less than 90%)
c (corn) effect on crop grade (corn [31]): 0 (weed kill ratio 5% or less (practically no effect))
d (soybean) effect on crop grade (soybean [32]): 0 (weed kill ratio 5% or less (practically no effect))
e (wheat) effect on crop grade (wheat [33]): 0 (weed kill ratio 5% or less (practically no effect))
f (beet) effect on crop grade (beet [34]): 3 (weed kill ratio 40% or more, less than 70%)
